Columns and labels:
Experiment in all cases: KINOMEscan competition binding
Conditions in all cases: compound 10.0 µM
BTK (human) = BTK (human) (UniProt Q06187)
CDK13 (human) = CDK13 (human) (UniProt Q14004)
CDK4 CCND1 (human) = CDK4 CCND1 (human) (UniProt P11802+P24385)
CDK4 CCND3 (human) = CDK4 CCND3 (human) (UniProt P11802+P30281)
CDKL3 (human) = CDKL3 (human) (UniProt Q8IVW4)
CPK1 (P.falciparum) = system: CPK1 (P.falciparum)
DDR1 (human) = DDR1 (human) (UniProt Q08345)
DSTYK (human) = DSTYK (human) (UniProt Q6XUX3)
DYRK1A (human) = DYRK1A (human) (UniProt Q13627)
EGFR (human) = EGFR (human) (UniProt P00533)
[1] = system: EGFR (human), P00533 [G719S]
[2] = system: EGFR (human), P00533 [L861Q]
GRK1 (human) = GRK1 (human) (UniProt Q15835)
GRK4 (human) = GRK4 (human) (UniProt P32298)
HUNK (human) = HUNK (human) (UniProt P57058)
ICK (human) = ICK (human) (UniProt Q9UPZ9)
IRAK1 (human) = IRAK1 (human) (UniProt P51617)
IRAK4 (human) = IRAK4 (human) (UniProt Q9NWZ3)
MAK (human) = MAK (human) (UniProt P20794)
MAP2K5 (human) = MAP2K5 (human) (UniProt Q13163)
MAP3K6 (human) = MAP3K6 (human) (UniProt O95382)
MET (human) = MET (human) (UniProt P08581)
NEK4 (human) = NEK4 (human) (UniProt P51957)
NIM1 (human) = NIM1 (human) (UniProt Q8IY84)
PIK3C2G (human) = PIK3C2G (human) (UniProt O75747)
PIK3CA (human) = PIK3CA (human) (UniProt P42336)
[3] = system: PIK3CA (human), P42336 [C420R]
PIP4K2C (human) = PIP4K2C (human) (UniProt Q8TBX8)
PIP5K1C (human) = PIP5K1C (human) (UniProt O60331)
PKN3 (M.tuberculosis) = PKN3 (M.tuberculosis) (UniProt Q6P5Z2)
PLK2 (human) = PLK2 (human) (UniProt Q9NYY3)
PRKCI (human) = PRKCI (human) (UniProt P41743)
PRPF4B (human) = PRPF4B (human) (UniProt Q13523)
SNRK (human) = SNRK (human) (UniProt Q9NRH2)
STK32A (human) = STK32A (human) (UniProt Q8WU08)
STK38 (human) = STK38 (human) (UniProt Q15208)
STK39 (human) = STK39 (human) (UniProt Q9UEW8)
TAOK2 (human) = TAOK2 (human) (UniProt Q9UL54)
TRPM6 (human) = TRPM6 (human) (UniProt Q9BX84)
VRK2 (human) = VRK2 (human) (UniProt Q86Y07)
Chain of VRK2 (human) (Q86Y07 whole entry, looked up): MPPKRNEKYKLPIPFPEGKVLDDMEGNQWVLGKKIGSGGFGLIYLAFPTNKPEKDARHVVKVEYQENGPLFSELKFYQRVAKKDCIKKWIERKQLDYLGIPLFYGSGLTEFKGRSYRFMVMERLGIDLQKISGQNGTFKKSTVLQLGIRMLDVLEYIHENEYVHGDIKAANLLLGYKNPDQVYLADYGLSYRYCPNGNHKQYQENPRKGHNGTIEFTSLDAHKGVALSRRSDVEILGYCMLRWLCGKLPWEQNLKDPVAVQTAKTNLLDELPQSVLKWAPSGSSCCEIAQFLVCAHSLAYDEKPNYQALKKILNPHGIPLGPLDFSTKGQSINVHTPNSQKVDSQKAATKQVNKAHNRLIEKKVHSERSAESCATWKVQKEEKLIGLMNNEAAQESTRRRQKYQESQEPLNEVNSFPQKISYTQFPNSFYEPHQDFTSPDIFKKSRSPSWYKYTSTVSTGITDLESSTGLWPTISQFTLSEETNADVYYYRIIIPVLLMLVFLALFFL

Chain of HUNK (human) (P57058 whole entry, looked up): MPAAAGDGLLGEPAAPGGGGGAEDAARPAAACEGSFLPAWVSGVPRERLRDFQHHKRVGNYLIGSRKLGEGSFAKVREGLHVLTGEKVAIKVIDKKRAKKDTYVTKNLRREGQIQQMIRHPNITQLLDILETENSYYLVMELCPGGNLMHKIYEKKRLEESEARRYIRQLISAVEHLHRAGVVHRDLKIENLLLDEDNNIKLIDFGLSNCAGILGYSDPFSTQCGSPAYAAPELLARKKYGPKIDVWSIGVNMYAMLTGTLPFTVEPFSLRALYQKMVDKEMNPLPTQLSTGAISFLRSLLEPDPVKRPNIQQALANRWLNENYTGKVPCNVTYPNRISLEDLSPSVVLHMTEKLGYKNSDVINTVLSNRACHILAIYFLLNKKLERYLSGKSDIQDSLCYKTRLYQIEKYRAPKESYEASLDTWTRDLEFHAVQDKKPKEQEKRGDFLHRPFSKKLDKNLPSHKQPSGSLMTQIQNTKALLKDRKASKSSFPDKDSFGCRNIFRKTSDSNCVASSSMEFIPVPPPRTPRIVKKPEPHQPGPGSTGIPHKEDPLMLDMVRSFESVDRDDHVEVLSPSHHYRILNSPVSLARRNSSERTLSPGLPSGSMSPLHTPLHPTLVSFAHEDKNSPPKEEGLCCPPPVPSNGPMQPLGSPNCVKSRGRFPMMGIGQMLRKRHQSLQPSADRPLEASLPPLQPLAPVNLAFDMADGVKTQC
Chain of MAP3K6 (human) (O95382 whole entry, looked up): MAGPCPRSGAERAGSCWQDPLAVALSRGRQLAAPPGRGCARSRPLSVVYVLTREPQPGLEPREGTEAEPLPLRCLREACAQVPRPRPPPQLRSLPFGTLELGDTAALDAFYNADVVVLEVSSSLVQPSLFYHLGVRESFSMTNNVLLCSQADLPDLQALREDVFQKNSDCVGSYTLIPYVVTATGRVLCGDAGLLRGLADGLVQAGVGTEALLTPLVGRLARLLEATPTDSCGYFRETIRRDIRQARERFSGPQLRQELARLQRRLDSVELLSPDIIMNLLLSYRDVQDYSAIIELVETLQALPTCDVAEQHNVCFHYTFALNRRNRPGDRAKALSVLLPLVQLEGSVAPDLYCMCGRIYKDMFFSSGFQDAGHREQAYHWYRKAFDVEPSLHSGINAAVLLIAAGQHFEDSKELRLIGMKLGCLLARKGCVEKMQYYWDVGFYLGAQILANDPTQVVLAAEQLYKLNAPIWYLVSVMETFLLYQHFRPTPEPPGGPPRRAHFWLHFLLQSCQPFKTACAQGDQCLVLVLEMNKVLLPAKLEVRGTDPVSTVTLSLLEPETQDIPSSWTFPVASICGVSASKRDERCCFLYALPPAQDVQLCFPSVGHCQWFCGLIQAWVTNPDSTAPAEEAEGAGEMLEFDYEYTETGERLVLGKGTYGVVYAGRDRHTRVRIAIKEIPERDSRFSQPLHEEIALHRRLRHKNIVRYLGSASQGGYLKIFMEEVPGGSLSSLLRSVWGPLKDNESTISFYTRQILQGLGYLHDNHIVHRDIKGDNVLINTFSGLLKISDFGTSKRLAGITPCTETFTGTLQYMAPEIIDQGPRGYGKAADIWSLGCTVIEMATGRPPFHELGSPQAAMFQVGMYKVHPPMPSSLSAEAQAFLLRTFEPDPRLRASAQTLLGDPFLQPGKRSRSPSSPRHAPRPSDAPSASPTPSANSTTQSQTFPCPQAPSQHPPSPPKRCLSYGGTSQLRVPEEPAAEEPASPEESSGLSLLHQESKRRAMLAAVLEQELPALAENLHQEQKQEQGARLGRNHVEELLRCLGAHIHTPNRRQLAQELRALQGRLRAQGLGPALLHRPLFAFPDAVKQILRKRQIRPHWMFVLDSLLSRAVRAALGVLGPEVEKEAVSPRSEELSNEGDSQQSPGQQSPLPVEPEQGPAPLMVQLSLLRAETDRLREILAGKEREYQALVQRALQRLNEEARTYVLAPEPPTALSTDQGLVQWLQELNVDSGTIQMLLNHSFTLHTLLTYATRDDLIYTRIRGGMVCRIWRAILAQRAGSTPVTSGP
Chain of PKN3 (M.tuberculosis) (Q6P5Z2 whole entry, looked up): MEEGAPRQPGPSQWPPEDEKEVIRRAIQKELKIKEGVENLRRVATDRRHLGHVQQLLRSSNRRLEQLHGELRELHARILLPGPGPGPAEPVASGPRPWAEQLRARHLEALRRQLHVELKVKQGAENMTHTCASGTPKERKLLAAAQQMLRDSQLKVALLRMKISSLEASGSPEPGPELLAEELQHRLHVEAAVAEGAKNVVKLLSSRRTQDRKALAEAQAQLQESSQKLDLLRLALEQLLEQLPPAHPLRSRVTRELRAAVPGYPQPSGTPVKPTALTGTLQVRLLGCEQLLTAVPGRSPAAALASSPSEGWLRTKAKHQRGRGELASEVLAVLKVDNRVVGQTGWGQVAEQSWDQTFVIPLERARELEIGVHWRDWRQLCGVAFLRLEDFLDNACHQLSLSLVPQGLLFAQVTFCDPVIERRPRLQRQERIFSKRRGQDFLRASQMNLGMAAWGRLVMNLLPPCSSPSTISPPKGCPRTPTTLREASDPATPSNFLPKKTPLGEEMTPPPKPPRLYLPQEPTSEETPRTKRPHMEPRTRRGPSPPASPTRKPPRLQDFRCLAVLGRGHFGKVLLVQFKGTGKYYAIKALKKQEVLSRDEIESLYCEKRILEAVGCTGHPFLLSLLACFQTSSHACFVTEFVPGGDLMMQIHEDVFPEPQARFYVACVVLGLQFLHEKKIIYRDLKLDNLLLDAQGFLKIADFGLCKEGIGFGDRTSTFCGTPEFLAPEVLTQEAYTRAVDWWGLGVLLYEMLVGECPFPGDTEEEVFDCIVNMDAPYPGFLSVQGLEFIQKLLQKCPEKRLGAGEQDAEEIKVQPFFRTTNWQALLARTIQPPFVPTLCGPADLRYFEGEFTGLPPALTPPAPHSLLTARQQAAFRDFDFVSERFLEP
Chain of PLK2 (human) (Q9NYY3 whole entry, looked up): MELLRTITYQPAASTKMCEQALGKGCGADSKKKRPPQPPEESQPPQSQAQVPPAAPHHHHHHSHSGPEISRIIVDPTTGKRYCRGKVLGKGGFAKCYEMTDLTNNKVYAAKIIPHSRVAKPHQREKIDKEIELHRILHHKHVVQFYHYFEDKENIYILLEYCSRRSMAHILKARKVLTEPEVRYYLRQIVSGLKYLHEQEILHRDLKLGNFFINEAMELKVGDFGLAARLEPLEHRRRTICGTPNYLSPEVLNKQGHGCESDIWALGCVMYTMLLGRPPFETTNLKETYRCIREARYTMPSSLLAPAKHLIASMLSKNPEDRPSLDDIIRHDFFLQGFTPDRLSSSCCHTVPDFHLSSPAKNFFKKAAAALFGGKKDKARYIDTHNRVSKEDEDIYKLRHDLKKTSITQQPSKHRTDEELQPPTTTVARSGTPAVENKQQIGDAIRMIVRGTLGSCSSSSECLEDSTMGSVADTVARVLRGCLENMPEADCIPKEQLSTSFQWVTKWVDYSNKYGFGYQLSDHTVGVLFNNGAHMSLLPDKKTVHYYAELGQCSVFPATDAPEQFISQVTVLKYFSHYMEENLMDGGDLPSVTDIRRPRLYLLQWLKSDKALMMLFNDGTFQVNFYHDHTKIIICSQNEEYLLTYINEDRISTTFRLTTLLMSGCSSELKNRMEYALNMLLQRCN
Chain of DDR1 (human) (Q08345 whole entry, looked up): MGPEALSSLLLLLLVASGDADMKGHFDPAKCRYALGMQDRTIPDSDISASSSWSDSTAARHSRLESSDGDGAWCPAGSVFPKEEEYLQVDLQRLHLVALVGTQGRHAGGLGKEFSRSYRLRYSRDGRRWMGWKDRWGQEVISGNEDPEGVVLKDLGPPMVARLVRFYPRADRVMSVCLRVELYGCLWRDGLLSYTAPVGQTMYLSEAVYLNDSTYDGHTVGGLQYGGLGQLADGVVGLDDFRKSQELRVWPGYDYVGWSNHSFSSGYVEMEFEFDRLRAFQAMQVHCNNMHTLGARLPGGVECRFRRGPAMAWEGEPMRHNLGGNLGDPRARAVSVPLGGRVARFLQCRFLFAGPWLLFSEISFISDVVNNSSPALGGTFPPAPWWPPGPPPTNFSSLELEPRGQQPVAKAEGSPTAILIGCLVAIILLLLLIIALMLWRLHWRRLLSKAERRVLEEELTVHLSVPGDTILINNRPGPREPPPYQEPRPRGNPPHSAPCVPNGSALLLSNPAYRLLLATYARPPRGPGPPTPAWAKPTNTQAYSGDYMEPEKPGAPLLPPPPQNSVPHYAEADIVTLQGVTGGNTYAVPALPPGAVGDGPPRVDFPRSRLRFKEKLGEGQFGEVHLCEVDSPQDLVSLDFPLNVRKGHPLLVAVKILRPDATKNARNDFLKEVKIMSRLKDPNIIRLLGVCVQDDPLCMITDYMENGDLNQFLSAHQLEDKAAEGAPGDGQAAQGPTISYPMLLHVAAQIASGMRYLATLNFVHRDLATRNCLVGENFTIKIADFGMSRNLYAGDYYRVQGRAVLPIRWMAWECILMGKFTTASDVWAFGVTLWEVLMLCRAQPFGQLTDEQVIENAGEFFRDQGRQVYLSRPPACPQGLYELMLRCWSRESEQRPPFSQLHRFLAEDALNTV

Structure (SMILES) | kinase still bound, per cent of control (BTK (human)) | kinase still bound, per cent of control (CDK13 (human)) | kinase still bound, per cent of control (CDK4 CCND1 (human)) | kinase still bound, per cent of control (CDK4 CCND3 (human)) | kinase still bound, per cent of control (CDKL3 (human)) | kinase still bound, per cent of control (CPK1 (P.falciparum)) | kinase still bound, per cent of control (DDR1 (human)) | kinase still bound, per cent of control (DSTYK (human)) | kinase still bound, per cent of control (DYRK1A (human)) | kinase still bound, per cent of control (EGFR (human)) | kinase still bound, per cent of control [1] | kinase still bound, per cent of control [2] | kinase still bound, per cent of control (GRK1 (human)) | kinase still bound, per cent of control (GRK4 (human)) | kinase still bound, per cent of control (HUNK (human)) | kinase still bound, per cent of control (ICK (human)) | kinase still bound, per cent of control (IRAK1 (human)) | kinase still bound, per cent of control (IRAK4 (human)) | kinase still bound, per cent of control (MAK (human)) | kinase still bound, per cent of control (MAP2K5 (human)) | other results
O=C(NC1CC1)c1cccc(-c2ccc3c(NC(=O)C4CC4)n[nH]c3c2)c1 | 100% | 82% | 94% | 82% | 55% | 18% | 71% | 71% | 98% | 96% | 85% | 69% | 100% | 14% | 64% | 13% | 82% | 88% | 51% | 5% | kinase still bound, per cent of control (MAP3K6 (human)): 86%; kinase still bound, per cent of control (MET (human)): 75%; kinase still bound, per cent of control (NEK4 (human)): 100%; kinase still bound, per cent of control (NIM1 (human)): 100%; kinase still bound, per cent of control (PIK3C2G (human)): 100%; kinase still bound, per cent of control (PIK3CA (human)): 99%; kinase still bound, per cent of control [3]: 100%; kinase still bound, per cent of control (PIP4K2C (human)): 95%; kinase still bound, per cent of control (PIP5K1C (human)): 12%; kinase still bound, per cent of control (PKN3 (M.tuberculosis)): 15%; kinase still bound, per cent of control (PLK2 (human)): 88%; kinase still bound, per cent of control (PRKCI (human)): 74%; kinase still bound, per cent of control (PRPF4B (human)): 53%; kinase still bound, per cent of control (SNRK (human)): 100%; kinase still bound, per cent of control (STK32A (human)): 78%; kinase still bound, per cent of control (STK38 (human)): 85%; kinase still bound, per cent of control (STK39 (human)): 99%; kinase still bound, per cent of control (TAOK2 (human)): 20%; kinase still bound, per cent of control (TRPM6 (human)): 100%; kinase still bound, per cent of control (VRK2 (human)): 100%
CCN1CCN(Cc2ccc(Nc3ncc4c(n3)N(C)c3ccccc3C(=O)N4C)cc2C(F)(F)F)CC1 | 67% | 100% | 65% | 100% | 100% | 74% | 14% | 7.1% | 51% | 73% | 99% | 98% | 78% | 56% | 59% | 80% | 25% | 100% | 100% | 35% | kinase still bound, per cent of control (MAP3K6 (human)): 100%; kinase still bound, per cent of control (MET (human)): 36%; kinase still bound, per cent of control (NEK4 (human)): 80%; kinase still bound, per cent of control (NIM1 (human)): 57%; kinase still bound, per cent of control (PIK3C2G (human)): 17%; kinase still bound, per cent of control (PIK3CA (human)): 25%; kinase still bound, per cent of control [3]: 18%; kinase still bound, per cent of control (PIP4K2C (human)): 3.6%; kinase still bound, per cent of control (PIP5K1C (human)): 24%; kinase still bound, per cent of control (PKN3 (M.tuberculosis)): 22%; kinase still bound, per cent of control (PLK2 (human)): 100%; kinase still bound, per cent of control (PRKCI (human)): 100%; kinase still bound, per cent of control (PRPF4B (human)): 76%; kinase still bound, per cent of control (SNRK (human)): 88%; kinase still bound, per cent of control (STK32A (human)): 81%; kinase still bound, per cent of control (STK38 (human)): 95%; kinase still bound, per cent of control (STK39 (human)): 100%; kinase still bound, per cent of control (TAOK2 (human)): 0.1%; kinase still bound, per cent of control (TRPM6 (human)): 100%; kinase still bound, per cent of control (VRK2 (human)): 100%

— the kinase profiling compilation of Christmann-Franck et al. (2016)
